Molecules are shown by their SMILES.

This passage reports IC50 results from patent US11149018B2, “Substituted N-arylethyl-2-aminoquinoline-4-carboxamides and use thereof” (Bayer Aktiengesellschaft, priority 2017, dated 2021).

Chain of FP receptor (P43088 whole entry): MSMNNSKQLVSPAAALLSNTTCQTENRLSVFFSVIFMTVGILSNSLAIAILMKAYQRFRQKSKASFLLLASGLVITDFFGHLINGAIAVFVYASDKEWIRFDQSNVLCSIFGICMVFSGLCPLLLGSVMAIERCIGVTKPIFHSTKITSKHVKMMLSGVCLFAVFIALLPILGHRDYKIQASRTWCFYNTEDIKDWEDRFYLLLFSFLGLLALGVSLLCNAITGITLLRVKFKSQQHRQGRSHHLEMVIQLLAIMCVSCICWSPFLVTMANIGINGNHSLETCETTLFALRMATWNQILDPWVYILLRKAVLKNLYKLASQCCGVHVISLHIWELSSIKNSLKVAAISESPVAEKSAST

This assay concerns the target FP receptor (Homo sapiens (Human), UniProt P43088). Put plainly: In vitro test of inhibition of human FP receptor activity (PGF2α-induced calcium flux in FP-expressing CHEM1 cells). The assay is classed as cell-based. To be noted: PGF2α 2 nM, some mean values of multiple determinations. An outline of the steps:
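FP antagonism in FP-expressing CHEM1 cells loaded with Fluo-8. Compound preincubated 10 min at 37° C, then receptor stimulated with 2 nM (final) PGF2α in calcium-free Tyrode with 2 mM CaCl2.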
Turning to `Cc1c(N2CCCC(C)C2)nc2ccc(Br)cc2c1C(=O)NCC(CCC(=O)O)c1ccccc1C(F)(F)F` (single isomer, unassigned; (+)) [Example 197, (+)-5-[({6-Bromo-3-methyl-2-[3-methylpiperidin-1-yl]quinolin-4-yl}carbonyl)amino]-4-[2-(trifluoromethyl)phenyl]pentanoic acid], the half-maximal inhibitory concentration (IC50) came to 0.021 µM.

Consider `Cc1c(N2CCCC(C)C2)nc2ccc(Br)cc2c1C(=O)NCC(CCC(=O)O)c1ccccc1C(F)(F)F` (single isomer, unassigned; (+)) [Example 198, (+)-5-[({6-Bromo-3-methyl-2-[3-methylpiperidin-1-yl]quinolin-4-yl}carbonyl)amino]-4-[2-(trifluoromethyl)phenyl]pentanoic acid], for which the IC50 came to 0.0037 µM.

With `Cc1c(N2CCCC(F)C2)nc2ccc(Br)cc2c1C(=O)NCC(CCC(=O)O)c1ccccc1OC(F)(F)F` (single isomer, unassigned; (+)) [Example 203, (+)-5-[({6-Bromo-2-[3-fluoropiperidin-1-yl]-3-methylquinolin-4-yl}carbonyl)amino]-4-[2-(trifluoromethoxy)phenyl]pentanoic acid], the IC50 came out at 0.011 µM.

Consider `Cc1c(N2CCCC(F)C2)nc2ccc(Br)cc2c1C(=O)NCC(CCC(=O)O)c1ccccc1OC(F)(F)F` (single isomer, unassigned; (+)) [Example 204, (+)-5-[({6-Bromo-2-[3-fluoropiperidin-1-yl]-3-methylquinolin-4-yl}carbonyl)amino]-4-[2-(trifluoromethoxy)phenyl]pentanoic acid], for which the half-maximal inhibitory concentration (IC50) came out at 0.0026 µM.

For `CCC1CCCN(c2nc3ccc(Br)cc3c(C(=O)NCC(CCC(=O)O)c3ccccc3OC(F)(F)F)c2C)C1` (single isomer, unassigned; (+)) [Example 205, (+)-5-[({6-Bromo-2-[3-ethylpiperidin-1-yl]-3-methylquinolin-4-yl}carbonyl)amino]-4-[2-(trifluoromethoxy)phenyl]pentanoic acid], the IC50 worked out at 0.00041 µM.

As to `CCC1CCCN(c2nc3ccc(Br)cc3c(C(=O)NCC(CCC(=O)O)c3ccccc3OC(F)(F)F)c2C)C1` (single isomer, unassigned; (+)) [Example 208, (+)-5-[({6-Bromo-2-[3-ethylpiperidin-1-yl]-3-methylquinolin-4-yl}carbonyl)amino]-4-[2-(trifluoromethoxy)phenyl]pentanoic acid], the half-maximal inhibitory concentration (IC50) came to 0.0014 µM.

As to `Cc1c(N2CCCC(C)C2)nc2ccc(Br)cc2c1C(=O)NCC(CCC(=O)O)c1ccccc1OC(F)(F)F` (single isomer, unassigned; (+)) [Example 211, (+)-5-[({6-Bromo-3-methyl-2-[3-methylpiperidin-1-yl]quinolin-4-yl}carbonyl)amino]-4-[2-(trifluoromethoxy)phenyl]pentanoic acid], the 50% inhibitory concentration (IC50) stood at 0.017 µM.

Regarding `Cc1c(N2CCCC(C)C2)nc2ccc(Br)cc2c1C(=O)NCC(CCC(=O)O)c1ccccc1OC(F)(F)F` (single isomer, unassigned; (+)) [Example 212, (+)-5-[({6-Bromo-3-methyl-2-[3-methylpiperidin-1-yl]quinolin-4-yl}carbonyl)amino]-4-[2-(trifluoromethoxy)phenyl]pentanoic acid], the IC50 turned out to be 0.0019 µM.

Consider `Cc1ccc(F)cc1C(CCC(=O)O)CNC(=O)c1c(C)c(N2CCCC(F)(F)C2)nc2ccc(Br)cc12` (single isomer, unassigned; (+)) [Example 214, (+)-5-({[6-Bromo-2-(3,3-difluoropiperidin-1-yl)-3-methylquinolin-4-yl]carbonyl}amino)-4-(5-fluoro-2-methylphenyl)pentanoic acid], for which the IC50 was 0.021 µM.

Regarding `Cc1c(N2CCCC2)nc2ccc(Br)cc2c1C(=O)NCC(CCC(=O)O)c1c(F)ccc(F)c1Cl` (single isomer, unassigned; (+)) [Example 215, (+)-5-({[6-Bromo-3-methyl-2-(pyrrolidin-1-yl)quinolin-4-yl]carbonyl}amino)-4-(2-chloro-3,6-difluorophenyl)pentanoic acid], the IC50 was found to be 0.0039 µM.

For the molecule `Cc1c(N2CCCC(F)(F)C2)nc2ccc(Br)cc2c1C(=O)NCC(CCC(=O)O)c1c(F)ccc(F)c1Cl` (single isomer, unassigned; (+)) [Example 217, (+)-5-({[6-Bromo-2-(3,3-difluoropiperidin-1-yl)-3-methylquinolin-4-yl]carbonyl}amino)-4-(2-chloro-3,6-difluorophenyl)pentanoic acid], the half-inhibitory concentration (IC50) stood at 0.05 µM.

`Cc1c(N2CCCCCC2)nc2ccc(Br)cc2c1C(=O)NCC(CCC(=O)O)c1c(F)ccc(F)c1Cl` (single isomer, unassigned; (+)) [Example 219, (+)-5-({[2-(Azepan-1-yl)-6-bromo-3-methylquinolin-4-yl]carbonyl}amino)-4-(2-chloro-3,6-difluorophenyl)pentanoic acid]: the IC50 was 0.029 µM.

Turning to `CCC1CCCN(c2nc3ccc(Br)cc3c(C(=O)NCC(CCC(=O)O)c3cc(F)ccc3F)c2C)C1` (single isomer, unassigned; (+)) [Example 227, (+)-5-[({6-Bromo-2-[3-ethylpiperidin-1-yl]-3-methylquinolin-4-yl}carbonyl)amino]-4-(2,5-difluorophenyl)pentanoic acid], the 50% inhibitory concentration (IC50) worked out at 0.057 µM.

On to `CCC1CCCN(c2nc3ccc(Br)cc3c(C(=O)NCC(CCC(=O)O)c3cc(F)ccc3F)c2C)C1` (single isomer, unassigned; (+)) [Example 228, (+)-5-[({6-Bromo-2-[3-ethylpiperidin-1-yl]-3-methylquinolin-4-yl}carbonyl)amino]-4-(2,5-difluorophenyl)pentanoic acid], for which the IC50 stood at 0.0011 µM.

On to `Cc1ccccc1C(CCC(=O)O)CNC(=O)c1c(C)c(N2CCCC(F)(F)C2)nc2ccc(Br)cc12` (single isomer, unassigned; (+)) [Example 231, (+)-5-({[6-Bromo-2-(3,3-difluoropiperidin-1-yl)-3-methylquinolin-4-yl]carbonyl}amino)-4-(2-methylphenyl)pentanoic acid], for which the IC50 turned out to be 0.039 µM.

Take `Cc1ccccc1C(CCC(=O)O)CNC(=O)c1c(C)c(N2CCCC2)nc2ccc(Br)cc12` (single isomer, unassigned; (+)) [Example 233, (+)-5-({[6-Bromo-3-methyl-2-(pyrrolidin-1-yl)quinolin-4-yl]carbonyl}amino)-4-(2-methylphenyl)pentanoic acid]: the half-maximal inhibitory concentration (IC50) was found to be 0.084 µM.

Turning to `COc1ccccc1C(CCC(=O)O)CNC(=O)c1c(C)c(N2CCCCC2)nc2ccc(Br)cc12` (single isomer, unassigned; (+)) [Example 235, (+)-5-({[6-Bromo-3-methyl-2-(piperidin-1-yl)quinolin-4-yl]carbonyl}amino)-4-(2-methoxyphenyl)pentanoic acid], the IC50 was determined as 0.0014 µM.

Consider `COc1ccccc1C(CCC(=O)O)CNC(=O)c1c(C)c(N2CCCC2)nc2ccc(Br)cc12` (single isomer, unassigned; (+)) [Example 237, (+)-5-({[6-Bromo-3-methyl-2-(pyrrolidin-1-yl)quinolin-4-yl]carbonyl}amino)-4-(2-methoxyphenyl)pentanoic acid], for which the half-inhibitory concentration (IC50) came to 0.0043 µM.

On to `COc1ccccc1C(CCC(=O)O)CNC(=O)c1c(C)c(N2CCCCCC2)nc2ccc(Br)cc12` (single isomer, unassigned; (+)) [Example 239, (+)-5-({[2-(Azepan-1-yl)-6-bromo-3-methylquinolin-4-yl]carbonyl}amino)-4-(2-methoxyphenyl)pentanoic acid], for which the IC50 came to 0.0014 µM.

`Cc1c(N2CCCCC2)nc2ccc(Br)cc2c1C(=O)NCC(CCC(=O)O)c1c(F)cccc1F` (single isomer, unassigned; (+)) [Example 245, (+)-5-({[6-Bromo-3-methyl-2-(piperidin-1-yl)quinolin-4-yl]carbonyl}amino)-4-(2,6-difluorophenyl)pentanoic acid]: the IC50 was 0.027 µM.

Turning to `Cc1c(N2CCCC(F)(F)C2)nc2ccc(Br)cc2c1C(=O)NCC(CCC(=O)O)c1c(F)cccc1F` (single isomer, unassigned; (+)) [Example 251, (+)-5-({[6-Bromo-2-(3,3-difluoropiperidin-1-yl)-3-methylquinolin-4-yl]carbonyl}amino)-4-(2,6-difluorophenyl)pentanoic acid], the IC50 amounted to 0.072 µM.

Consider `Cc1c(N2CCCCC2)nc2ccc(Br)cc2c1C(=O)NCC(CCC(=O)O)c1cc(F)ccc1F` (single isomer, unassigned; (+)) [Example 257, (+)-5-({[6-Bromo-3-methyl-2-(piperidin-1-yl)quinolin-4-yl]carbonyl}amino)-4-(2,5-difluorophenyl)pentanoic acid], for which the IC50 came out at 0.015 µM.

`Cc1c(N2CCCC2)nc2ccc(Br)cc2c1C(=O)NCC(CCC(=O)O)c1cc(F)ccc1F` (single isomer, unassigned; (+)) [Example 259, (+)-5-({[6-Bromo-3-methyl-2-(pyrrolidin-1-yl)quinolin-4-yl]carbonyl}amino)-4-(2,5-difluorophenyl)pentanoic acid]: the half-inhibitory concentration (IC50) was found to be 0.055 µM.

As for `Cc1c(N2CCCC(F)(F)C2)nc2ccc(Br)cc2c1C(=O)NCC(CCC(=O)O)c1cc(F)ccc1F` (single isomer, unassigned; (+)) [Example 263, (+)-5-({[6-Bromo-2-(3,3-difluoropiperidin-1-yl)-3-methylquinolin-4-yl]carbonyl}amino)-4-(2,5-difluorophenyl)pentanoic acid], the half-maximal inhibitory concentration (IC50) was 0.028 µM.

Consider `Cc1c(N2CCCC(F)(F)C2)nc2ccc(Br)cc2c1C(=O)NCC(CCC(=O)O)c1c(Cl)cccc1Cl` (single isomer, unassigned; (+)) [Example 266, (+)-5-({[6-Bromo-2-(3,3-difluoropiperidin-1-yl)-3-methylquinolin-4-yl]carbonyl}amino)-4-(2,6-dichlorophenyl)pentanoic acid], for which the IC50 amounted to 0.037 µM.

As for `[2H]C1([2H])N(c2nc3ccc(Br)cc3c(C(=O)NCC(CCC(=O)O)c3ccccc3OC(F)(F)F)c2C)C([2H])([2H])C([2H])([2H])C([2H])([2H])C1([2H])[2H]` (single isomer, unassigned; (+)) [Example 271, (+)-5-[({6-Bromo-3-methyl-2-[(^2H10)piperidin-1-yl]quinolin-4-yl}carbonyl)amino]-4-[2-(trifluoromethoxy)phenyl]pentanoic acid], the IC50 is 0.0063 µM.
